According to patent US12509431B2, “1,4-dihydroquinazolinone compounds and uses thereof” (Edgewise Therapeutics, Inc., priority 2022, dated 2025):
Where two headings read alike, the source gives them in different places.

Tests used:
[1] = target: T1, myosin+human ventricle RLC (Sus scrofa, UniProt P79293); experiment: NADH-coupled actin-activated ATPase assay, myosin + human ventricle RLC; format: biochemical; settings: 2 μM myosin, rabbit skeletal actin, 25° C., 1% DMSO
T1 construct: Full-length myosin was resuspended to 1 mg/mL
T1 sequence (P79293 whole entry): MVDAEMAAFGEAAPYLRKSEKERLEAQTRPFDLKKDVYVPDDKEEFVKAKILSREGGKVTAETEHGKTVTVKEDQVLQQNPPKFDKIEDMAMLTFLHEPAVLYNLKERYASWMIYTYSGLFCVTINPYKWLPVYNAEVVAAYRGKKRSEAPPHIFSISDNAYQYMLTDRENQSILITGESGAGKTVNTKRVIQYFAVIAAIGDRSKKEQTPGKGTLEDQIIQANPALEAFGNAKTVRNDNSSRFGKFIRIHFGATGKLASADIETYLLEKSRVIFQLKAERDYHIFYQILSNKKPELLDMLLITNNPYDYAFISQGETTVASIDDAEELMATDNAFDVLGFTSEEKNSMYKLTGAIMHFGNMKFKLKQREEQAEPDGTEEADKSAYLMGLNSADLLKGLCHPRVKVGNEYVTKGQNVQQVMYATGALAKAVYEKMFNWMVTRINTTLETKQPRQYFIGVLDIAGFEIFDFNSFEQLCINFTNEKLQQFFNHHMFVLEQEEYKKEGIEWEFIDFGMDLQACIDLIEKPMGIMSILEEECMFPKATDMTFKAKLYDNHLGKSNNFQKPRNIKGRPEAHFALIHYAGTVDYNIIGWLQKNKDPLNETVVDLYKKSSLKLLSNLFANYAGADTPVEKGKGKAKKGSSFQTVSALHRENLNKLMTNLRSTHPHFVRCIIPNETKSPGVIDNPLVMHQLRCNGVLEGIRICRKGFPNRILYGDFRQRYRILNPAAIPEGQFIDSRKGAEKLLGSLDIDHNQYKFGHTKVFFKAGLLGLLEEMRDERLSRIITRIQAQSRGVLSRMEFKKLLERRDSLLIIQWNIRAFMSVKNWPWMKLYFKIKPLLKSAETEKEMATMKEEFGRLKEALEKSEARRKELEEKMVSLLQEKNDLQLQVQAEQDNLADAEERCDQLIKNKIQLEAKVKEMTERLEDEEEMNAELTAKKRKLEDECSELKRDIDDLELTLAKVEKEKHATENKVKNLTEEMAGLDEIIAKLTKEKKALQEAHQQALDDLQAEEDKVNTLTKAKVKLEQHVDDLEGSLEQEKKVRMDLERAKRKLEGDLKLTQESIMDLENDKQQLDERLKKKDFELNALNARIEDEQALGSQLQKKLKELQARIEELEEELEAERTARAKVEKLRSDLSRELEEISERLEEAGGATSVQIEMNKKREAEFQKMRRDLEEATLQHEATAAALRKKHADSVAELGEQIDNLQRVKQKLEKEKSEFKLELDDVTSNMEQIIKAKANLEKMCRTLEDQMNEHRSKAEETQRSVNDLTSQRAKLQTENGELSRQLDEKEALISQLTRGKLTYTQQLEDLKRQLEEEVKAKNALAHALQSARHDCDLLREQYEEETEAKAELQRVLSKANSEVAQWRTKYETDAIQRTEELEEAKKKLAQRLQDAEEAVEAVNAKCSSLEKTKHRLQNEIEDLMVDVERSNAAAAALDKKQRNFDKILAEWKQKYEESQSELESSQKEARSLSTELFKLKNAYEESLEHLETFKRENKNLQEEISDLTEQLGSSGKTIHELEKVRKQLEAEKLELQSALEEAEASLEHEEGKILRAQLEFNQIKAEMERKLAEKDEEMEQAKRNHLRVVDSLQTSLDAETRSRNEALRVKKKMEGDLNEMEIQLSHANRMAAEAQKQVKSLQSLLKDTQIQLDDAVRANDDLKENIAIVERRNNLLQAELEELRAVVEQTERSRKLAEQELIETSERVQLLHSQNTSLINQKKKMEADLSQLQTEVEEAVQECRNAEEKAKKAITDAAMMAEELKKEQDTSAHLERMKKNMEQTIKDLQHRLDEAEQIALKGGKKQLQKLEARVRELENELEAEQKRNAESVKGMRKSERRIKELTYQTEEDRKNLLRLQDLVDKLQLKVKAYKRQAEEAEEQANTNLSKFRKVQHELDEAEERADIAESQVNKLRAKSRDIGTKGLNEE
Description: (§1) Full-length myosin was resuspended to 1 mg/mL in a buffer containing 500 mM KCl, 10 mM KPi, 15 mM CDTA, pH 8.5. Triton-X was then added to a final concentration of […], and the suspension was agitated for 15 minutes at room temperature to selectively remove the regulatory light chain (RLC). RLC-removed myosin was then precipitated and collected and resuspended in a buffer containing 400 mM KCl, 50 mM Mops, pH 7, 2 mM MgCl2, and 1 mM DTT. Recombinantly expressed and purified human ventricle RLC was added in a 3-fold molar excess to myosin and incubated on ice for 2 hours to allow for reassociation of the RLC onto myosin. Triton (0.1%) was added to the reaction to prevent any non-specific binding events. RLC-exchanged myosin was then precipitated and collected and resuspended in a buffer containing 12 mM PIPES, pH 6.8, […], 2 mM MgCl2, and 1 mM DTT. RLC removal and exchange were confirmed by SDS-PAGE and proteins were visualized using coomassie stain.
(§2) Myosin was resuspended in buffer A (f.c.=12 mM PIPES, pH 6.8, 30 mM KCl, 2 mM MgCl2, 1 mM DTT, 0.1 mg/mL BSA, 0.01% (v/v) Antifoam 204, and 0.6% (v/v) PK/LDH (final reaction contains ≥3.6 U/mL PK and >5.4 U/mL LDH)) at final concentrations of 1 μM for myosin+native RLC and 2 μM for myosin+removed RLC and myosin+human ventricle RLC. Buffer A was then mixed with an equal volume of buffer B (f.c.=12 mM PIPES, pH 6.8, 30 mM KCl, 2 mM MgCl2, 1 mM DTT, 0.1 mg/mL BSA, 0.01% (v/v) Antifoam 204, 0.5 mM NADH, 1.5 mM phosphoenolpyruvate, 1 mM ATP, and 0.3 mg/mL filamentous rabbit skeletal actin) in a 384-well plate. Dose-dependent compound effects were assessed by adding the compounds at varying concentrations between 100 μM and 2 nM, all with a constant final DMSO concentration of 1% v/v. The reactions were run at a constant temperature of 25° C. in the plate reader to monitor the change in A340 over time. Measurements were taken every 90 sec for 75 min to generate raw time-domain absorbance data, which was processed to normalized reaction rates. Normalized enzymatic rates were calculated, using rates observed in 1% (v/v) in DMSO as 100% and 0 slope as 0%. Compound-specific activity curves were generated by plotting the normalized rates versus compound concentration and fitting the data to a 4-parameter logistic model. In addition to the fit parameters, the IC25% was calculated, relative to the 100% normalized value.

[2] = target: T2, Porcine Ventricle myofibrils (left ventricle of Yucatan minipigs) (Sus scrofa, UniProt P79293); experiment: Myofibril ATPase assay (PK/LDH NADH-coupled), ventricle myofibrils; format: biochemical
T2 construct: Myofibrils from porcine cardiac muscle was isolated from the left ventricle of Yucatan minipigs; tissue Exemplar Genetics; host or cells: left ventricle of Yucatan minipigs
T2 sequence (P79293 whole entry): as above
Summary of the method: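 NADH depletion (A340) coupled through pyruvate kinase/lactate dehydrogenase reports ATPase rate of porcine left-ventricle myofibrils over 75 min kinetic reads. Regression slopes, vehicle-normalized, fitted by 4-parameter logistic give EC25 and, where available, EC50.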

[3] = tested on: Rabbit Skeletal myofibrils (rabbit psoas muscle); experiment: Myofibril ATPase assay (PK/LDH NADH-coupled), skeletal myofibrils; format: biochemical
Summary of the method: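 ATPase rate taken as linear-regression slope of A340 (NADH depletion through PK/LDH coupling) over a 75 min kinetic read, with psoas-derived rabbit skeletal myofibrils at pH 7.0. Four-parameter fits of vehicle-normalized activity give EC25 and, where reached, EC50.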

[4] = tested on: Porcine Atria myofibrils; experiment: Myofibril ATPase assay (PK/LDH NADH-coupled), atria myofibrils; format: biochemical
Summary of the method: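 Values are EC25% (and, for inhibitors, EC50%) from 4-parameter logistic fits of activity normalized to vehicle wells. Rates came from linear regression of 340 nm kinetic reads (every 1.5-2 min, 75 min) of NADH-coupled ATP turnover by porcine atria myofibrils.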

[5] = target: T3, myosin+removed RLC (Sus scrofa, UniProt P79293); experiment: NADH-coupled actin-activated ATPase assay, myosin + removed RLC; format: biochemical; settings: 2 μM myosin, rabbit skeletal actin, 25° C., 1% DMSO
T3 construct: Full-length myosin was resuspended to 1 mg/mL
T3 sequence (P79293 whole entry): as above
Description: as §1, §2

[6] = target: T4, myosin+native RLC (Sus scrofa, UniProt P79293); experiment: NADH-coupled actin-activated ATPase assay, myosin + native RLC; format: biochemical; settings: 1 μM myosin, rabbit skeletal actin, 25° C., 1% DMSO
T4 construct: Full-length myosin was resuspended to 1 mg/mL
T4 sequence (P79293 whole entry): as above
Description: as §1, §2

[7] = tested on: isoflurane-anesthetized SD rats; experiment: In vivo echocardiography of systolic cardiac performance (FS, SWT, HR, LV volumes) after a single oral dose; settings: Rattus norvegicus, single dose 10 mg/kg PO, ~2 hrs post-dosing, vs. vehicle
Description: Experiments were performed to evaluate the in vivo ability of the compounds of the disclosure to modulate systolic cardiac performance. Non-invasively echocardiography was used to assess cardiac indicators in isoflurane-anesthetized SD rats. A set of conscious rats were treated with either vehicle control (0 mg/kg PO; n=78) or a single dose of an test compound (10 mg/kg PO, n=2 to 6/compound) via oral gavage. Cardiac function/geometry were recorded at two separate time-points/days: once prior to dosing (i.e., at baseline, day −2) and at ˜2 hrs post-dosing (day 0).
In these experiments, heart rate (HR), echocardiography-derived indices of left-ventricular systolic performance, as well as dimensions/volumes were measured using a high-frequency transducer and parastemnal long-axis transthoracic views (Vevo3100, VisualSonic). LV fractional shortening (FS), an index of systolic function, was defined as the end-diastole normalized change in internal dimensions divided by the […] (LVid) of the left ventricle between end-systole (LVids) and end-diastole (LVidd) (i.e., FS=100·[LVidd−LVids]/LVidd). LV volumes were derived using the Teichholz formula (LVV=7·LVid^3/[2.4+LVid]). In addition, a systolic wall-thickening index (SWT) was also evaluated. SWT is defined as the relative ratio (end-diastole normalized) of left-ventricular (anterior and posterior) wall-thickness change during systole; i.e., SWT=I{[(anterior LV wall thickness in systole−anterior LV wall thickness in diastole)][…][(posterior LV wall thickness in systole−posterior LV wall thickness in diastole)]}/{2*diastolic thickness}. In all cases, blood samples were taken (via either tail-vein micro-sampling or cardiac-puncture) at the time of each echocardiographic examination in order to establish pharmacokinetic (PK)/pharmacodynamics (PD) relationships.

[8] = EDV (LV volume, Teichholz formula), read-out: EDV % vs. VEH
[9] = LV fractional shortening, read-out: FS % vs. VEH
[10] = heart rate, read-out: HR % vs. VEH
[11] = systolic wall-thickening index, read-out: SWT % vs. VEH

Row | Structure (SMILES) | Potency, Full-length myosin + exchanged human ventricle RLC [1] | Porcine Ventricle IC25 ([2]; Table 8) | Rabbit Psoas IC25 ([3]; Table 8) | Porcine Atria IC25 ([4]; Table 8) | Potency, Full-length myosin + RLC removed [5] | Potency, Full-length myosin + native porcine ventricle RLC [6] | change in vivo at 10 mg/kg [7, 8] | change in vivo at 10 mg/kg [7, 9] | change in vivo at 10 mg/kg [7, 10] | change in vivo at 10 mg/kg [7, 11] | Porcine Ventricle IC25 ([2]; Table 7) | Rabbit Psoas IC25 ([3]; Table 7) | Porcine Atria IC25 ([4]; Table 7)
1 | C[C@H](NC(=O)CN1Cc2cc(F)ccc2NC1=O)c1ccc(C#N)cn1 [Compound B172] | 14390 nM | 20930 nM | 2013 nM | 2940 nM | >100000 nM | 12320 nM | – | – | – | – | – | – | –
2 | O=C(CN1Cc2cc(F)ccc2NC1=O)N[C@@H](CO)c1ncc(F)cc1F [Compound B181] | – | 1905 nM | 242 nM | 130 nM | – | – | -6% | -13% | 8% | -5% | – | – | –
3 | C[C@H](NC(=O)C1(N2Cc3c(ccc(F)c3F)NC2=O)CC1)c1ncc(C#N)cc1F [Compound B269] | 490 nM | 150 nM | 60 nM | 60 nM | >100000 nM | 590 nM | – | – | – | – | – | – | –
4 | C[C@@H](NC(=O)CN1Cc2cc(F)c(F)cc2NC1=O)c1ncc(C#N)cc1F [Compound B357] | – | 100000 nM | 50290 nM | 1560 nM | – | – | 5% | -8% | -5% | -5% | – | – | –
5 | [2H]C1([2H])c2c(ccc(F)c2F)NC(=O)N1CC(=O)N[C@@H](C)c1ncc(C#N)cc1F [Compound B366] | – | 770 nM | 50 nM | 70 nM | – | – | 82% | -71% | -2% | -41% | – | – | –
6 | [2H]C1([2H])c2c(ccc(F)c2F)NC(=O)N1CC(=O)N[C@H](C)c1ncc(C#N)cc1F [Compound B367] | – | 550 nM | 780 nM | 320 nM | – | – | -6% | -31% | 10% | -32% | – | – | –
7 | C[C@H](NC(=O)CN1C(=O)Nc2cccnc2C12CC2)c1ncc(C#N)cc1F [Compound N26] | 1920 nM | – | – | – | >100000 nM | 2170 nM | – | – | – | – | 1309 nM | 47.64 nM | 150 nM
